Here are results for three molecules from patent publication US9993522B2, “Treatment of pain by inhibition of USP5 de-ubiquitinase” (UTI LIMITED PARTNERSHIP, priority 2012, dated 2018).

In data set [1] the test system is Cav3.2 channels. Put plainly: Cav3.2 ubiquitination in cultured mouse DRG neurons (immunoprecipitation, anti-ubiquitin western blot). The class given is cell-based. The settings on record: 5 μM MG132 overnight.
Data set [2] concerns Cav3.2 channels. Put plainly: Ubiquitination state of Cav3.2 channels in CAD cells with proteasomal inhibitor (western blot densitometry). Type of data set: cell-based. The settings on record: 5 μM MG132, CAD cells, mean±SEM. The procedure: Human embryonic kidney tsA-201 cells were cultured as described previously (Altier et al., 2006). Cells were transfected with calcium phosphate and used for biochemical analysis 72 hrs post-transfection. Neuronal derived CAD cells were cultured as described previously (Altier et al., 2011). These cells were transfected with Lipofectamine 2000 (Invitrogen) and used for biochemical and electrophysiological experiments 48-72 hrs post-transfection. Both tsA-201 and CAD cells were preincubated with 5 μM MG132 (MG) or 100 μM Chloroquine (Chl) overnight.
Cells were lysed in RIPA buffer (in mM; 50 Tris, 100 NaCl, 1% triton X-100, 1% NP-40, 0.2% SDS, 0.1% NaDeoxycholate, 20 NaF, 10 Na4P2O7 pyrophosphate, 10 EDTA+protease inhibitor cocktail, pH 7.5). A modified RIPA buffer (in mM; 50 Tris, 100 NaCl, 0.2% (v/v) triton X-100, 0.2% (v/v) NP-40, 10 EDTA+protease inhibitor cocktail, with or without 5 μM MG132 pH 7.5) was used to co-immunoprecipitate Cav3.2 channels with USP5 protein. Lysates from tsA-201, CAD cells and rat brain tissue were prepared by sonicating samples at 60% pulse for 10 seconds and by centrifugation at 13,000 rpm for 15 minutes at 4° C. […] Western blot quantification was performed using densitometry analysis (Quantity One-BioRad software). […]
(In general: Immunoblotting shows a protein as a band on a membrane.)

The subject of a further data set is CFA-injected mice. Put plainly: CFA-induced persistent inflammatory pain, mechanical hyperalgesia. Particulars: acute delivery, 10.0 μg/i.t.
For data set [3] the following is noted: 10.0 μg/i.t.
Description: Injections were given to fully conscious mice using the method described by Hylden and Wilcox (Hylden & Wilcox, 1980). Animals were manually restrained, the dorsal fur of each mouse was shaved, the spinal column was arched, and a 30-gauge needle attached in a PE20 Polyethylene tube to a 25-μl Hamilton microsyringe (Hamilton, Birmingham, UK) was inserted into the subdural space between the L4 and L5 vertebrae. Correct i.t. positioning of the needle tip was confirmed by a characteristic tail-flick response of animal. Intrathecal injections of volumes between 2-10 μl were given over a period between 5-10 seconds.

Residues, ends and D or L forms follow the SMILES beside them. *: point of attachment. Cbz = O=C(OCc1ccccc1)* Bounds are passed on as bounds.

Protocol for CFA-injected mice: Mechanical hyperalgesia was measured using the digital plantar aesthesiometer (DPA, UgoBasile, Varese, Italy). […] Mice were allowed to acclimate for a period of at least 90 minutes. The DPA device was positioned beneath the animal, so that the filament was directly under the plantar surface of the ipsilateral hind paw. Each paw was tested three times per session.

For `CC(C)C[C@@H](C=O)NC(=O)[C@H](CC(C)C)NC(=O)[C@H](CC(C)C)NC(=O)OCc1ccccc1` [MG132] (Cbz-Leu-Leu-Leu-aldehyde), the Cav3.2 ubiquitination signal result in the data set with Cav3.2 channels [1] is on record as “only from immunoprecipitates from cells treated with 5 μM MG132”. Also, in the data set on Cav3.2 channels [2] (n=4), the “ratio of ubiquitinated vs non-ubiquitinated channels (Ub-Cav3.2 channels/Cav3.2 channels), higher MW band (b)” value came to 2.80±0.5. The “ratio of ubiquitinated vs non-ubiquitinated channels (Ub-Cav3.2 channels/Cav3.2 channels), lower MW band (a)” value in the data set on Cav3.2 channels [2] (n=5) is reported as 3.2±1.1.

For `COCC(=O)O[C@]1(CCN(C)CCCc2nc3ccccc3[nH]2)CCc2cc(F)ccc2[C@@H]1C(C)C` [mibefradil], the “pain in the CFA model (mechanical withdrawal threshold)” value in the data set on CFA-injected mice was “significantly attenuate pain in the CFA model”.

As for `CC(C)C[C@H](NC(=O)[C@H](CCCNC(=N)N)NC(=O)[C@H](CCCNC(=N)N)NC(=O)[C@H](CC(C)C)NC(=O)[C@H](CCCNC(=N)N)NC(=O)[C@H](CCCCN)NC(=O)[C@H](CCC(=O)O)NC(=O)[C@H](CCC(=O)O)NC(=O)[C@H](CCCNC(=N)N)NC(=O)[C@H](CCCNC(=N)N)NC(=O)[C@H](CCCNC(=N)N)NC(=O)[C@H](C)NC(=O)[C@H](CCC(=O)O)NC(=O)[C@H](CCCNC(=N)N)NC(=O)[C@H](CCCNC(=N)N)NC(=O)[C@H](CCCNC(=N)N)NC(=O)[C@H](CCC(N)=O)NC(=O)[C@H](CCCNC(=N)N)NC(=O)[C@H](CCCNC(=N)N)NC(=O)[C@H](CCCCN)NC(=O)[C@H](CCCCN)NC(=O)[C@H](CCCNC(=N)N)NC(=O)CNC(=O)[C@@H](N)Cc1ccc(O)cc1)C(=O)N[C@@H](CCC(=O)O)C(=O)N[C@@H](CCCNC(=N)N)C(=O)N[C@@H](CCCNC(=N)N)C(=O)N[C@@H](CCCNC(=N)N)C(=O)N[C@@H](CCCNC(=N)N)C(=O)N[C@@H](CCCCN)C(=O)N[C@@H](C)C(=O)N[C@@H](CCC(N)=O)C(=O)O` [Tat-3.2-III-IV linker peptide] (H-YGRKKRRQRRREARRREEKRLRRLERRRRKAQ-OH), the abnormal behavior entry in data set [3] (2.5 μg/μl over 10 seconds) is recorded as “no abnormal behavior was observed”. In addition, in data set [3] (5 μg/μl over 5 seconds), the “mice that developed shaking behavior” value is on record as 3 out of 10 and the “time to termination of shaking behavior after injection” value is at most 15 min.
